Measurements from patent US7625926B2, “P-glycoprotein inhibitor, method for preparing the same and pharmaceutical composition comprising the same” (Hanmi Pharm. Co., Ltd, priority 2003, dated 2009).

What was measured:
[1] = In vivo absorption of orally administered paclitaxel; details: rats, oral 20 mg/kg paclitaxel with the compound (Control: with vehicle)
Procedure: In order to investigate the activity of the inventive compounds prepared in Examples, in vivo absorption tests were carried out as follows.
Blood samples were taken directly from the heart of each rat before and 1, 2, 4, 6, 8 and 24 hours after the administration.
Each of blood samples was centrifuged at 12,000 rpm to obtain a serum sample, 200 μl of which was mixed with 400 μl of acetonitrile (an internal standard) and the mixture was shaken to obtain an extract. The extract was centrifuged at 12,000 rpm, 4° C. for 5 min to obtain a supernatant.

[2] = tested on: MCF-7/Dox cell, which is MCF-7 expressing p-glycoprotein; details: enhancement of anticancer activity of paclitaxel against MCF7/Dox; ED50 of paclitaxel alone / ED50 with 50 nM test compound
Procedure: The cells were subcultured in 5% FBS (fetal bovine serum)/RPMI1640 medium supplemented with glutamine 2 mmol, sodium bicarbonate 3.7 g/L and gentamicin 10 mg/L at 37° C. in 5% CO2 incubator under 100% humidity, and collected using a 0.25% trypsin solution containing 3 mM 1,2-cyclohenxandiamine tetraacetic acid.
The collected cells were plated on a 96 well flat-bottomed plate at a density of 2×10^3 cells/well, and incubated in the same medium for 24 hours. Paclitaxel, an anticancer agent, was diluted with the same medium to obtain 10^−11˜10^−6 M test solutions. […] After incubating for 72 hours, the culture medium was removed, each well was treated with 10% trichloroacetic acid for 1 hour to fix the cells, washed with water, and dried at room temperature. After adding a dyeing solution containing 1% acetic acid with 0.4% SRB (sulforhodamine B) thereto, the wells were kept at room temperature for 30 min, and washed with 1% acetic acid to remove remaining SRB. […] Also, the enhancement of the anticancer activity of paclitaxel against MCF7/Dox (resistant cancer cells) was measured by determining ED^PAC50/ED50, wherein ED^PAC50 is the value determined for the case of paclitaxel alone.

| Structure (SMILES) | AUC (ng · hr/ml), area under the curve of blood concentration till 24 hours [1] | Cmax (ng/ml), maximum blood concentration [1] | Tmax (hr), time at the maximum blood concentration [1] [h] | ED50^PAC/ED50 [2] |
| --- | --- | --- | --- | --- |
| COc1cc2c(cc1OC)CN(CCc1ccc(-n3nnc(-c4cc(OC)c(OC)cc4NC(=O)c4cnc5ccccc5c4)n3)cc1)CC2 [Example 1, quinoline-3-carboxylic acid [2-(2-4-[2-(6,7-dimethoxy-3,4-dihydro-1H-isoquinolin-2-yl)-ethyl]-phenyl-2H-tetrazol-5-yl)-4,5-dimethoxy-phenyl]-amide] | 3,032 ± 1,108 ng · hr/ml | 1,172 ± 433 ng/ml | 1.0 | 20.3 |
| COc1cc2c(cc1OC)CN(CCc1ccc(-n3nnc(-c4cc(F)c(F)cc4NC(=O)c4cnc5ccccc5c4)n3)cc1)CC2 [Example 28, quinoline-3-carboxylic acid [2-(2-{4-[2-(6,7-dimethoxy-3,4-dihydro-1H-isoquinolin-2-yl)-ethyl]-phenyl}-2H-tetrazol-5-yl)-4,5-difluoro-phenyl]-amide] | – | – | – | 19.9 |
| COc1cc2c(cc1OC)CN(CCSc1ccc(-n3nnc(-c4cc(OC)c(OC)cc4NC(=O)c4cnc5ccccc5c4)n3)cc1)CC2 [Example 29, quinoline-3-carboxylic acid [2-(2-{4-[2-(6,7-dimethoxy-3,4-dihydro-1H-isoquinolin-2-yl)-ethylsulfanyl]-phenyl}-2H-tetrazol-5-yl)-4,5-dimethoxy-phenyl]-amide] | – | – | – | 21.3 |
| COc1cc2c(cc1OC)CN(CCc1ccc(-n3nnc(-c4cc(OC)c(OC)cc4NC(=O)c4cnc5ccccc5c4)n3)cc1)CC2 [Example 30] | – | – | – | 2.6 |
| COc1cc2c(cc1OC)CN(CCc1ccc(-n3nnc(-c4cc(OC)c(OC)cc4NC(=O)C=Cc4ccccc4)n3)cc1)CC2 [Example 31, N-[2-(2-{4-[2-(6,7-dimethoxy-3,4-dihydro-1H-isoquinolin-2-yl)-ethyl]-phenyl}-2H-tetrazol-5-yl)-4,5-dimethoxy-phenyl]-3-phenyl-acrylamide] | – | – | – | 2.7 |
| COc1cc2c(cc1OC)CN(CCc1ccc(-n3nnc(-c4cc(OC)c(OC)cc4NC(=O)C=Cc4cnc5ccccc5c4)n3)cc1)CC2 [Example 32, N-[2-(2-{4-[2-(6,7-dimethoxy-3,4-dihydro-1H-isoquinolin-2-yl)-ethyl]-phenyl}-2H-tetrazol-5-yl)-4,5-dimethoxy-phenyl]-3-quinolin-3-yl-acrylamide] | – | – | – | 19.2 |
| COc1ccc(CCN(C)CCc2ccc(-n3nnc(-c4cc(OC)c(OC)cc4NC(=O)c4cc(=O)c5ccccc5o4)n3)cc2)cc1OC [Example 33, 4-oxo-4H-chromene-2-carboxylic acid (2-{2-[4-(2-{[2-(3,4-dimethoxy-phenyl)-ethyl]-methyl-amino}-ethyl)-phenyl]-2H-tetrazol-5-yl}-4,5-dimethoxy-phenyl)-amide] | – | – | – | 23.0 |
